Source: patent US8247211B2, “Glycopeptide antibiotics” (American Cyanamid Company, priority 2001, dated 2012)
Converted amounts (≈) assume the structure as drawn.

How the values were obtained:
Assay in all cases: In vitro antibacterial evaluation: minimum inhibitory concentration (MIC), broth dilution method
Format in all cases: cell-based
Conditions in all cases: 18 hours at 35° C.
[1] = test system: Enterococcus sp.
Summary of the method: (§1)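 Test strains, among them recent clinical isolates carrying methicillin, penicillin and/or vancomycin resistance, were inoculated at 5×10^5 CFU/mL. A broth dilution series spanning 64-0.06 μg/mL in Muller-Hinton II […] (NCCLS M7-A2) defined the MIC as the lowest growth-inhibiting concentration.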

[2] = test system: Streptococcus sp.
Summary of the method: as §1

[3] = test system: Escherichia coli
Summary of the method: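 Using Muller-Hinton II […] and an inoculum of 5×10^5 CFU/mL, antibiotic dilutions from 64 down to 0.06 μg/mL were tested following NCCLS M7-A2. The MIC is the lowest concentration inhibiting growth, including in methicillin-, penicillin- or vancomycin-resistant clinical isolates.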

[4] = test system: Staphylococcus sp.
Summary of the method: as §1

[5] = Enterococcus faecalis (GC 2242)
[6] = Streptococcus agalactiae (GC 4564)
[7] = Streptococcus pneumoniae (GC 4565)
[8] = broth dilution, inoculum 5×10^5 CFU/mL
[9] = Streptococcus pneumoniae (ATCC 6301)
[10] = Streptococcus pneumoniae (GC 1894)

CCCCCNC(=O)OC1C(CO)OC(OC2C(CO)OC(Oc3ccc(CC4NC(=O)C(C(C)c5ccccc5)NC(=O)CNC(=O)C(CO)NC(=O)C(C(O)C5CNC(=N)N5C5OC(CO)C(O)C(O)C5O)NC(=O)C(C(O)C5CNC(=N)N5)NC4=O)cc3)C(O)C2O)C(O)C1O (stereo not drawn) [Example 251, α-O-[(Pentylamino)carbonyl]-cyclo[glycyl-β-methylphenylalanyl-O-(4-O-hexopyranosylhexopyranosyl)tyrosyl-3-(2-iminoimidazolidin-4-yl)seryl-3-(3-hexopyranosyl-2-iminoimidazolidin-4-yl)serylseryl]]
MIC Enterococcus avium (GC 4558) [1]: >64 µg/mL
MIC Enterococcus faecalis (ATCC 29212) [1]: >64 µg/mL
MIC Enterococcus faecalis (GC 2242) [1, 5]: >64 µg/mL
MIC Enterococcus faecalis (GC 4552) [1]: >64 µg/mL
MIC Enterococcus faecalis (GC 4553) [1]: >64 µg/mL
MIC Enterococcus faecalis (GC 4554) [1]: >64 µg/mL
MIC Enterococcus faecium (GC 2243) [1]: >64 µg/mL
MIC Enterococcus faecium (GC 4556) [1]: >64 µg/mL
MIC Enterococcus faecium (GC 4557) [1]: 64 µg/mL (≈ 45.4 µM)
MIC Streptococcus agalactiae (GC 4564) [2, 6]: >64 µg/mL
MIC Streptococcus pneumoniae (GC 4565) [2, 7]: 64 µg/mL (≈ 45.4 µM)
MIC Streptococcus pyogenes (ID-3187) ([2]; Streptococcus pyogenes (ID-3187)): 64 µg/mL (≈ 45.4 µM)
MIC Escherichia coli (ATCC 25922) ([3]; Escherichia coli (ATCC 25922)): >64 µg/mL
MIC Escherichia coli (GC 4559) [3]: >64 µg/mL
MIC Escherichia coli (GC 4560) [3]: 4 µg/mL (≈ 2.84 µM)
MIC Coagulase Negative Staphylococcus (GC 4547) [4]: >64 µg/mL
MIC Coagulase Negative Staphylococcus (GC 4548) [4]: >64 µg/mL
MIC Coagulase Negative Staphylococcus (GC 4549) [4]: >64 µg/mL
MIC Coagulase Negative Staphylococcus (GC 4551) [4]: >64 µg/mL
MIC Coagulase Negative Staphylococcus (ID-3941) ([4]; Coagulase Negative Staphylococcus (ID-3941)): 64 µg/mL (≈ 45.4 µM)
MIC Staphylococcus aureus (ATCC 29213) [4]: >64 µg/mL
MIC Staphylococcus aureus (GC 1131) [4]: >64 µg/mL
MIC Staphylococcus aureus (GC 4541) [4]: >64 µg/mL
MIC Staphylococcus aureus (GC 4542) [4]: >64 µg/mL
MIC Staphylococcus aureus (GC 4544) [4]: >64 µg/mL
MIC Staphylococcus aureus (GC 4545) [4]: >64 µg/mL
MIC Staphylococcus aureus-SMITH (GC 4543) [4]: >64 µg/mL
MIC Staphylococcus haemolyticus (GC 4546) [4]: >64 µg/mL

CC(c1ccccc1)C1NC(=O)CNC(=O)C(CO)NC(=O)C(CC2CNC(=N)N2C2OC(CO)C(O)C(O)C2O)NC(=O)C(CC2CNC(=N)N2)NC(=O)C(Cc2ccc(OC3OC(CO)C(OC4OC(COCc5ccc(OCc6ccccc6)cc5)C(O)C(O)C4O)C(O)C3O)cc2)NC1=O (stereo not drawn) [Example 246, Cyclo[3-(2-iminoimidazolidin-4-yl)alanyl-3-(3-hexopyranosyl-2-iminoimidazolidin-4-yl)-alanylserylglycyl-β-methylphenylalanyl-O-[4-O-[6-O-[4-(phenylmethoxy)benzyl]hexopyranosyl]hexopyranosyl]tyrosyl]]
MIC Enterococcus avium (GC 4558) [1]: 8 µg/mL (≈ 5.48 µM)
MIC Enterococcus faecalis (ATCC 29212) [1]: 16 µg/mL (≈ 11 µM)
MIC Enterococcus faecalis (GC 2242) [1, 5]: 16 µg/mL (≈ 11 µM)
MIC Enterococcus faecalis (GC 2691) ([1]; Enterococcus faecalis (GC 2691)): 32 µg/mL (≈ 21.9 µM)
MIC Enterococcus faecalis (GC 3059) ([1]; Enterococcus faecalis (GC 3059)): 32 µg/mL (≈ 21.9 µM)
MIC Enterococcus faecalis (GC 4552) [1]: 16 µg/mL (≈ 11 µM)
MIC Enterococcus faecalis (GC 4553) [1]: 8 µg/mL (≈ 5.48 µM)
MIC Enterococcus faecalis (GC 4554) [1]: 32 µg/mL (≈ 21.9 µM)
MIC Enterococcus faecalis (GC 6189) ([1]; Enterococcus faecalis (GC 6189)): 16 µg/mL (≈ 11 µM)
MIC Enterococcus faecium (GC 2243) [1]: 16 µg/mL (≈ 11 µM)
MIC Enterococcus faecium (GC 4556) [1]: 16 µg/mL (≈ 11 µM)
MIC Enterococcus faecium (GC 4557) [1]: 4 µg/mL (≈ 2.74 µM)
MIC Enterococcus faecalis (GC 2242) [1, 8]: 16 µg/mL (≈ 11 µM)
MIC Enterococcus faecalis (GC 2691) [1, 8]: 32 µg/mL (≈ 21.9 µM)
MIC Enterococcus faecalis (GC 3059) [1, 8]: 32 µg/mL (≈ 21.9 µM)
MIC Streptococcus agalactiae (GC 4564) [2, 6]: 2 µg/mL (≈ 1.37 µM)
MIC Streptococcus pneumoniae (ATCC 6301) [2, 9]: 2 µg/mL (≈ 1.37 µM)
MIC Streptococcus pneumoniae (GC 1894) [2, 10]: 0.5 µg/mL (≈ 0.343 µM)
MIC Streptococcus pneumoniae (GC 4565) [2, 7]: 2 µg/mL (≈ 1.37 µM)
MIC Streptococcus pyogenes (GC 4563) ([2]; Streptococcus pyogenes (GC 4563)): 4 µg/mL (≈ 2.74 µM)
MIC Streptococcus agalactiae (GC 4564) [2, 8]: 2 µg/mL (≈ 1.37 µM)
MIC Streptococcus pneumoniae (ATCC 6301) [2, 8]: 2 µg/mL (≈ 1.37 µM)
MIC Streptococcus pneumoniae (GC 1894) [2, 8]: 0.5 µg/mL (≈ 0.343 µM)
MIC Streptococcus pneumoniae (GC 4565) [2, 8]: 2 µg/mL (≈ 1.37 µM)
MIC Streptococcus pyogenes (GC 4563) [2, 8]: 4 µg/mL (≈ 2.74 µM)
MIC Escherichia coli (GC 4559) [3]: 64 µg/mL (≈ 43.8 µM)
MIC Escherichia coli (GC 4560) [3]: 4 µg/mL (≈ 2.74 µM)
MIC Coagulase Negative Staphylococcus (GC 4547) [4]: 4 µg/mL (≈ 2.74 µM)
MIC Coagulase Negative Staphylococcus (GC 4548) [4]: 4 µg/mL (≈ 2.74 µM)
MIC Coagulase Negative Staphylococcus (GC 4549) [4]: 4 µg/mL (≈ 2.74 µM)
MIC Coagulase Negative Staphylococcus (GC 4551) [4]: 8 µg/mL (≈ 5.48 µM)
MIC Coagulase Negative Staphylococcus (GC 6257) [4]: 2 µg/mL (≈ 1.37 µM)
MIC Staphylococcus aureus (ATCC 29213) [4]: 4 µg/mL (≈ 2.74 µM)
MIC Staphylococcus aureus (GC 1131) [4]: 8 µg/mL (≈ 5.48 µM)
MIC Staphylococcus aureus (GC 3051) ([4]; Staphylococcus aureus (GC 3051)): 4 µg/mL (≈ 2.74 µM)
MIC Staphylococcus aureus (GC 3053) ([4]; Staphylococcus aureus (GC 3053)): 4 µg/mL (≈ 2.74 µM)
MIC Staphylococcus aureus (GC 4541) [4]: 4 µg/mL (≈ 2.74 µM)
MIC Staphylococcus aureus (GC 4542) [4]: 4 µg/mL (≈ 2.74 µM)
MIC Staphylococcus aureus (GC 4544) [4]: 8 µg/mL (≈ 5.48 µM)
MIC Staphylococcus aureus (GC 4545) [4]: 4 µg/mL (≈ 2.74 µM)
MIC Staphylococcus aureus-SMITH (GC 4543) [4]: 4 µg/mL (≈ 2.74 µM)
MIC Staphylococcus haemolyticus (GC 4546) [4]: 4 µg/mL (≈ 2.74 µM)

COc1ccc2cc(COC3C(OC4C(CO)OC(Oc5ccc(CC6NC(=O)C(C(C)c7ccccc7)NC(=O)CNC(=O)C(CO)NC(=O)C(CC7CNC(=N)N7C7OC(CO)C(O)C(O)C7O)NC(=O)C(CC7CNC(=N)N7)NC6=O)cc5)C(O)C4O)OC(CO)C(O)C3O)ccc2c1 (centres unmarked) [Example 245c, Cyclo[3-(2-iminoimidazolidin-4-yl)alanyl-3-(3-hexopyranosyl-2-iminoimidazolidin-4-yl)-alanylserylglycyl-62-methylphenylalanyl-O-[4-O-[2-O-[(6-methoxy-2-naphthyl)methyl]-hexopyranosyl]hexopyranosyl]tyrosyl]]
MIC Enterococcus faecium (GC 4557) [1]: 64 µg/mL (≈ 44.6 µM)
MIC Streptococcus pneumoniae (ATCC 6301) [2, 9]: 64 µg/mL (≈ 44.6 µM)
MIC Streptococcus pneumoniae (GC 1894) [2, 10]: 32 µg/mL (≈ 22.3 µM)
MIC Streptococcus pneumoniae (GC 4565) [2, 7]: 64 µg/mL (≈ 44.6 µM)
MIC Streptococcus pneumoniae (ATCC 6301) [2, 8]: 64 µg/mL (≈ 44.6 µM)
MIC Streptococcus pneumoniae (GC 1894) [2, 8]: 32 µg/mL (≈ 22.3 µM)
MIC Streptococcus pneumoniae (GC 4565) [2, 8]: 64 µg/mL (≈ 44.6 µM)
MIC Escherichia coli (GC 4560) [3]: 32 µg/mL (≈ 22.3 µM)
MIC Coagulase Negative Staphylococcus (GC 4549) [4]: 64 µg/mL (≈ 44.6 µM)
MIC Coagulase Negative Staphylococcus (GC 6257) [4]: 64 µg/mL (≈ 44.6 µM)
